# Entries after “also recorded” stand apart in the source; their conditions may differ. Bridge positions count the residues as written; N and C are the ends. Peptide text beside a SMILES is read from it.
# T1: Trypsin (Bos taurus, UniProt P00760)
# T1 construct: gene PRSS1
# T1 sequence (P00760 24-246): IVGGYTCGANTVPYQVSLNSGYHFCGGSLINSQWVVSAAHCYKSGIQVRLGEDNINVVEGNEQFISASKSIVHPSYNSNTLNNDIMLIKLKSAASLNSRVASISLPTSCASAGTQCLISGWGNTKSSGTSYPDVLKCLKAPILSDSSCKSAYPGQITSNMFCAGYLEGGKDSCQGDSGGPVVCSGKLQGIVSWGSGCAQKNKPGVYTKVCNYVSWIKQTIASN
# B1: soybean BBI: soybean Bowman–Birk protease inhibitor, two-headed protease inhibitor (protein, UniProt P01055 40-110, looked up)
# Bowman-Birk type proteinase …: DDESSKPCCDQCACTKSNPPQCRCSDMRLNSCHSACKSCICALSYPAQCFCVDITDFCYEPCKPSEDDKEN
# What was measured:
# [1] = target: T2, Tryptase (Homo sapiens, UniProt Q15661); test: Tryptase inhibition assay; format: biochemical
# T2 construct: purchased Calbiochem, U.K
# T2 sequence (Q15661 31-275): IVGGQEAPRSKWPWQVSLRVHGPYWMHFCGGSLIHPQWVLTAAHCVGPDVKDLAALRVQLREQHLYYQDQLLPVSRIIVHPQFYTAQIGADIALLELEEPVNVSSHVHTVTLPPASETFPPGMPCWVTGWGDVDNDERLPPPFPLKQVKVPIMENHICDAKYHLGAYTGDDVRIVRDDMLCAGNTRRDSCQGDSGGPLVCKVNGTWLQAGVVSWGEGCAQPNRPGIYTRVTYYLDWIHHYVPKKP
# Experimental: Tryptase (2.5 μl from 1 mg/ml stock solution, Calbiochem, U.K.), was added to the wells of a microtitre plate containing substrate (Boc-Phe-Ser-Arg-NHMec, obtained from Bachem, U.K.) (50 μM) and synthetic peptide replicates (0.5, 1, 2 and 4 mM) in tryptase assay buffer, pH 7.6, containing 0.05 M Tris, 0.15 M NaCl and 0.2% (w/v) PEG 6000 (final volume 210 μl).
# For modest binding inhibition, we first calculated the IC50 from a plot of % inhibition against inhibitor concentration [I]. The data points were fitted to the resulting curve, by non-linear regression analysis, using GraphPad Prism. The IC50 values were then converted into Ki values using the eqn (3), to account for the presence of competing substrate [15]. (3) Ki = IC50/{1 + ([S]/KM)}
# In inhibition studies with both these proteases, their respective substrates were used at a fixed concentration [S] of 50 μM. […] The determination of these KM values was carried out using identical buffer and temperature conditions (37°C) as those employed in the inhibition studies with the two synthetic amphibian peptides.
# [2] = target: T1, Trypsin; test: Trypsin inhibition assay (synthetic peptides, Morison plot); format: biochemical; conditions: substrate Phe-Pro-Arg-NHMec 50 μM, 37°C
# Experimental: (§1) Trypsin (10 μl from 0.1 μM stock solution in 1 mM HCl), was added to the wells of a microtitre plate containing substrate (Phe-Pro-Arg-NHMec) (50 μM) and synthetic peptide replicates (0.1–100 μM) in 10 mM phosphate buffer, pH 7.4, containing 2.7 mM KCl and 137 mM NaCl (final volume 210 μl).
# (§2) Each determination was carried out in triplicate. The rate of hydrolysis of substrate was monitored continuously, at 37°C, by measuring the rate of increase in fluorescence due to production of 7-amino-4-methylcoumarin (NH2Mec) at 460 nm (excitation 360 nm) in a CytoFluor® multi-well plate reader Series 4000 spectrofluorimeter.
# For potent, slow, tight-binding inhibition, the Morison equation was used to determine the inhibition constant Ki(app) by fitting the kinetic data to the equation below: (1) Vi/V0 = 1 − {[E]0 + [I] + Ki(app) − ([E]0 + [I] + Ki(app))^2−4 × [E]0 × [I]/2 × [E]0} […]
# This kinetic treatment was used for the inhibition of trypsin by OSTI. Since the inhibition studies were performed in the presence of competing substrate, the true Ki value was calculated from Ki(app) using eqn (2). For trypsin, a fixed substrate concentration [S] of 50 μM was used, for these inhibition studies and in a separate experiment (performed using identical buffer and temperature conditions),a value of 73.29 μM was determined for the Michaelis constant KM, for substrate hydrolysis in the absence of OSTI. […]
# [3] = Determination of peptide secondary structures using CD analysis; format: physicochemical
# Experimental: CD measurements were performed with a JASCO J-815 CD spectrometer (Jasco, Essex, U.K.) at room temperature (20–25°C). Each peptide was dissolved in (a) water and (b) 50% (v/v) trifluoroethanol (TFE)-water to reach a concentration of 50 μM before being transferred and measured in a 0.1 cm high precision quartz cell (Hellma Analytics, Essex, U.K.). The wavelength used in CD spectrometer was from 190 to 240 nm with a scanning speed of 200 nm/min, bandwidth and data pitch are 1 and 0.5 nm respectively. CD data are expressed as the mean molar ellipticity [θ] in deg.cm^2.dmol^−1 in corresponding wavelength (nm), which is calculated using the measured ellipticity (θ, in medg) with the equation [θ] = θ/(10 × c × l), ‘c’ refers to the molar concentration of the sample (mol/l) and the term ‘l’ is the cuvette path length (cm). DichroWeb webserver (http://dichroweb.cryst.bbk.ac.uk/html/home.shtml) was used to estimate the α-helix and β-sheet content.
# Figure 8 Circular dichroism spectra of OSTI and [Phe^9]-OSTI The CD spectra recorded for OSTI and [Phe^9]-OSTI (100 μM) in (A) 10 mM ammonium acetate water solution and (B) 50% 2,2,2-TFE/10 mM ammonium acetate water solution.
# [4] = target: Chymotrypsin (Bos taurus, UniProt P00766); test: Chymotrypsin inhibition assay; format: biochemical
# Experimental: as §1, with “Chymotrypsin” for “Trypsin”, “HCl)” for “HCl),”, “(Succinyl–Ala–Ala–Pro–Phe–NHMec, obtained from Bachem, U.K.)” for “(Phe-Pro-Arg-NHMec)”
# as §2
# For modest binding inhibition, we first calculated the IC50 from a plot of % inhibition against inhibitor concentration [I]. The data points were fitted to the resulting curve, by non-linear regression analysis, using GraphPad Prism. The IC50 values were then converted into Ki values using the eqn (3), to account for the presence of competing substrate. (3) Ki = IC50/{1 + ([S]/KM)}
# This kinetic treatment was applied to the inhibition of tryptase by OSTI and chymotrypsin by [Phe^9]-OSTI. […] The Michaelis constant KM for tryptase against Boc-Phe-Ser-Arg-NHMec was determined to be 227.2 μM, while KM for chymotrypsin against Succinyl–Ala–Ala–Pro–Phe–NHMec was determined to be 38.4 μM. […]
# [5] = system: chymase; conditions: Lineweaver–Burk double-reciprocal plot; ref [24]; cited from earlier work
# Text: Tryptase and chymase are atypical serine proteases that are synthesized, stored and released by mast cells. Due to their close involvement in the pathogenesis of inflammation and some other diseases, there have been reports of BBIs possibly having utility in the treatment of such conditions.
# [6] = 50% TFE-water, CD 190–240 nm, room temperature (20–25°C), DichroWeb
# [7] = aqueous solution, CD 190–240 nm, room temperature (20–25°C), DichroWeb
molecule,measurement,setting,value
"CC[C@H](C)[C@@H]1NC(=O)[C@H](CO)NC(=O)[C@H](CCCCN)NC(=O)[C@H]([C@@H](C)O)NC(=O)[C@H](Cc2c[nH]c3ccccc23)NC(=O)[C@@H](NC(=O)CNC(=O)[C@H](CCCCN)NC(=O)[C@H](CC(C)C)NC(=O)[C@H](C)NC(=O)[C@H](C)N)CSSC[C@@H](C(=O)N[C@@H](Cc2ccccc2)C(N)=O)NC(=O)[C@@H]2CCCN2C(=O)[C@H](CCCCN)NC(=O)[C@@H]2CCCN2C(=O)[C@@H]2CCCN2C1=O [OSTI, AALKGCWTKSIPPKPCF-amide] (H-AALKGCWTKSIPPKPCF-NH2; disulfide 6-16; N-terminus assumed)",tryptase inhibition (in words),"[1]; progress curves, OSTI 0–17.4 μM",moderate inhibitor
same,inhibition kinetics / mechanism from progress curves,[2],"reversible, slow-binding kinetics; also recorded: two-step complexing mechanism"
same,β-sheet secondary structure (in words),"[3]; 50% TFE-water, CD",low percentage of β-sheet secondary structure
same,random coil content,[3]; [6],47%
same,α-helix content,[3]; [6],8%
same,β-sheet content,[3]; [6],45%
same,canonical β-turn motif,"[3]; aqueous solution, CD",did not display canonical β-turn motif
same,random coil content,[3]; [7],42%
same,β-sheet content,[3]; [7],51%
"CC[C@H](C)[C@@H]1NC(=O)[C@H](CO)NC(=O)[C@H](Cc2ccccc2)NC(=O)[C@H]([C@@H](C)O)NC(=O)[C@H](Cc2c[nH]c3ccccc23)NC(=O)[C@@H](NC(=O)CNC(=O)[C@H](CCCCN)NC(=O)[C@H](CC(C)C)NC(=O)[C@H](C)NC(=O)[C@H](C)N)CSSC[C@@H](C(=O)N[C@@H](Cc2ccccc2)C(N)=O)NC(=O)[C@@H]2CCCN2C(=O)[C@H](CCCCN)NC(=O)[C@@H]2CCCN2C(=O)[C@@H]2CCCN2C1=O [[Phe^9]-OSTI, AALKGCWTFSIPPKPCF-amide] (H-AALKGCWTFSIPPKPCF-NH2; disulfide 6-16)",Ki,"[4]; substrate Succinyl–Ala–Ala–Pro–Phe–NHMec 50 μM, 10 mM phosphate buffer pH 7.4, 2.7 mM KCl, 137 mM NaCl, 37°C, from IC50 with KM 38.4 μM, mean ± S.E.M. of three independent experiments, each performed in duplicate",1 ± 0.1 µM
"Boc-Phe-Ser-Arg-NHMec [fluorogenic tryptase substrate, reference compound]",Km,"[1]; substrate of tryptase, identical buffer and temperature conditions (37°C), read-out: Michaelis constant KM, tryptase",227 µM
"Succinyl–Ala–Ala–Pro–Phe–NHMec [fluorogenic chymotrypsin substrate, reference compound]",Km,"[4]; substrate of chymotrypsin, identical buffer and temperature conditions (37°C), read-out: Michaelis constant KM, chymotrypsin",38.4 µM
B1,mechanism of chymase inhibition,[5],non-competitive mechanism
